From patent US20250381306A1, “COMPOSITIONS AND METHODS FOR TREATING DIABETIC CARDIOMYOPATHY” (UNIVERSITY OF UTAH RESEARCH FOUNDATION, priority 2022, published 2025)

Tested on: cardiomyocytes
Experiment: Adult primary cardiomyocyte glucose uptake test
Format: cell-based, mouse
Details: db/db cardiomyocytes, 10 nM insulin, metformin (20 µM) positive control
Method: Adult mouse cardiomyocytes were isolated from both male and female mice with collagenase II (2 mg/mL, Worthington Biochemical Corporation). Freshly isolated cardiomyocytes were seeded in laminin-precoated culture dishes and cultured in perfusion buffer (120.4 mM NaCl, 14.7 mM KCl, 0.6 mM KH2PO4, 0.6 mM Na2HPO4, 1.2 mM MgSO4×7H2O, 10 mM Hepes, 4.6 mM NaHCO3, 30 mM taurine, and 5.5 mM glucose) for 1 hour in 37° C. and 5% CO2 incubator prior to further experiments.
For glucose uptake assays, freshly isolated CMCs were seeded and cultured in laminin-precoated 96-well plates for 1 hour prior to the test. Cells were then washed twice with glucose-free perfusion buffer (120.4 mM NaCl, 14.7 mM KCl, 0.6 mM KH2PO4, 0.6 mM Na2HPO4, 1.2 mM MgSO4: 7H2O, 10 mM HEPES) and starved in starvation buffer (glucose-free perfusion buffer containing 1 mM pyruvate, 0.1% BSA) for 40 min. Metformin (0, 20 μM) was loaded together with starvation buffer in the indicated groups. Cells were then stimulated in the absence or presence of insulin (0, 10 nM) (Sigma-Aldrich) for 20 min. Following the manufacturer's instructions, 2 DG-glucose uptake test in CMCs was then determined by Glucose Uptake Assay kit (Abcam) and quantified with a FlexStation 3 plate reader (Molecular Devices).

Question: Which “insulin-stimulated uptake of 2-Deoxy-D-glucose” value does the source give for `CN(C)C(=N)N=C(N)N` [metformin] here?
Answer: rescue
